Reference: US20130065922A1, “NOVEL AMIDES AS FUNGICIDES” (priority 2010, published 2013)
Where two headings read alike, the source gives them in different places.

Key:
[1] = system: Phaeosphaeria nodorum (Septoria nodorum); test: Phaeosphaeria nodorum (Septoria nodorum)/Wheat/Leaf Disc Preventative (Glume Blotch); format: in vivo; settings: Parastagonospora nodorum, foliar; 200 ppm; wheat leaf segments cv. Kanzler, preventative; 5-7 days after application; untreated control infected to over 80%; read-out: inhibit fungal infestation
Plasmopara viticola = test: whole plant or invertebrate; format: in vivo; settings: foliar, read-out: inhibit fungal infestation
Pythium ultimum = test: Pythium ultimum/Liquid Culture (Seedling Damping Off); format: cell-based; settings: Globisporangium ultimum, read-out: inhibit fungal infestation
[2] = system: Blumeria graminis f. Sp. tritici (Erysiphe graminis f. Sp. tritici); test: Blumeria graminis f. Sp. tritici (Erysiphe graminis f. Sp. tritici)/Wheat/Leaf Disc Preventative (Powdery Mildew on Wheat); format: in vivo; settings: foliar, 200 ppm, wheat leaf segments cv. Kanzler, preventative, 6-8 days after application, untreated control infected to over 80%, read-out: inhibit fungal infestation
Phytophthora infestans = test: whole plant or invertebrate; format: in vivo; settings: in Solanum lycopersicum, foliar, read-out: inhibit fungal infestation
[3] = 200 ppm, liquid culture (PDB), 24° C., growth inhibition photometrically 2-3 days after application

SMILES | inhibition at 200 ppm [1] [%] | inhibition at 200 ppm (Plasmopara viticola) [%] | melting point [°C] | inhibition at 200 ppm (Pythium ultimum; [3]) [%] | inhibition at 200 ppm [2] [%] | inhibition at 200 ppm (Phytophthora infestans) [%] | inhibition at 200 ppm (Pythium ultimum) [%]
C#CC(C)(C#C)NC(=O)C(Oc1cc(C)c2ncc(OCC)cc2c1)SC (stereo not shown) [Compound 23, 2-(3-Ethoxy-8-methyl-quinolin-6-yloxy)-N-(1-ethynyl-1-methyl-prop-2-ynyl)-2-methylsulfanyl-acetamide] | ≥ 80 | ≥ 80 | 143 to 145 | ≥ 80 | ≥ 80 |  | 
C#CC(C)(C)NC(=O)C(Oc1cc(C)c2ncc(OCC)cc2c1)SC (stereo not shown) [Compound 25, N-(1,1-Dimethyl-prop-2-ynyl)-2-(3-ethoxy-8-methyl-quinolin-6-yloxy)-2-methylsulfanyl-acetamide] | ≥ 80 | ≥ 80 | 160 to 162 | ≥ 80 | ≥ 80 |  | 
CCOc1cnc2ccc(OC(SC)C(=O)NC(C)(C)C)cc2c1 (stereo not shown) [Compound 26, N-tert-Butyl-2-(3-ethoxy-quinolin-6-yloxy)-2-methylsulfanyl-acetamide] | ≥ 80 |  | 120 to 123 | ≥ 80 | ≥ 80 |  | 
C#CC(C)(C)NC(=O)C(CC)Oc1ccc2ncc(SC)cc2c1 (stereo not shown) [Compound 29, N-(1,1-Dimethyl-prop-2-ynyl)-2-(3-methylsulfanyl-quinolin-6-yloxy)-butyramide] |  | ≥ 80 | 121 to 123 | ≥ 80 | ≥ 80 | ≥ 80 | 
CCC(Oc1ccc2ncc(SC)cc2c1)C(=O)NC(C)(C)C (stereo not shown) [Compound 30, N-tert-Butyl-2-(3-methylsulfanyl-quinolin-6-yloxy)-butyramide] |  | ≥ 80 | 113 to 115 | ≥ 80 | ≥ 80 | ≥ 80 | 
C#CC(C)(C)NC(=O)C(Oc1cc(Cl)c2ncc(SC)cc2c1)SC (stereo not shown) [Compound 32, 2-(8-Chloro-3-methylsulfanyl-quinolin-6-yloxy)-N-(1,1-dimethyl-prop-2-ynyl)-2-methylsulfanyl-acetamide] |  | ≥ 80 | 157 to 159 | ≥ 80 |  | ≥ 80 | 
CC#CC(C)(C)NC(=O)C(Oc1cc(Cl)c2ncc(SC)cc2c1)SC (stereo not shown) [Compound 33, 2-(8-Chloro-3-methylsulfanyl-quinolin-6-yloxy)-N-(1,1-dimethyl-but-2-ynyl)-2-methylsulfanyl-acetamide] |  | ≥ 80 | 153 to 155 |  |  | ≥ 80 | ≥ 80
C#CC(C)(C)NC(=O)C(CC)Oc1cc(C)c2ncc(SC)cc2c1 (stereo not shown) [Compound 37, N-(1,1-Dimethyl-prop-2-ynyl)-2-(8-methyl-3-methylsulfanyl-quinolin-6-yloxy)-butyramide] | ≥ 80 | ≥ 80 | 134 to 136 | ≥ 80 |  |  | 
C#CC(C)(C=C)NC(=O)C(Oc1ccc2ncc(SC)cc2c1)SC (stereo not shown) [Compound 63, N-(1-Ethynyl-1-methyl-allyl)-2-methylsulfanyl-2-(3-methylsulfanyl-quinolin-6-yloxy)-acetamide] |  | ≥ 80 | 121 to 123 | ≥ 80 |  | ≥ 80 | 
CCSc1cnc2ccc(OC(SC)C(=O)NC(C)(C)/C=N/OC)cc2c1 (stereo not shown) [Compound 64, 2-(3-Ethylsulfanyl-quinolin-6-yloxy)-N-(2-methoxyimino-1,1-dimethyl-ethyl)-2-methylsulfanyl-acetamide] |  | ≥ 80 | 105 to 107 | ≥ 80 | ≥ 80 | ≥ 80 | 
CSc1cnc2ccc(OC(SC)C(=O)NC(C)(C#N)C3CC3)cc2c1 (stereo not shown) [Compound 65, N-(Cyano-cyclopropyl-methyl-methyl)-2-methylsulfanyl-2-(3-methyl-sulfanyl-quinolin-6-yloxy)-acetamide] | ≥ 80 | ≥ 80 |  | ≥ 80 |  | ≥ 80 | 
CSc1cnc2ccc(OC(SC)C(=O)NC(C)(C)C#N)cc2c1 (stereo not shown) [Compound 68, N-(Cyano-dimethyl-methyl)-2-methylsulfanyl-2-(3-methylsulfanyl-quinolin-6-yloxy)-acetamide] |  | ≥ 80 |  | ≥ 80 |  | ≥ 80 | 
